From patent US9040903B2, “Precursor selection using an artificial intelligence algorithm increases proteomic sample coverage and reproducibility” (Wisconsin Alumni Research Foundation, priority 2011, dated 2015)

B1: bone morphogenetic protein 4 (protein, UniProt P12644 293-408, looked up)
Bone morphogenetic protein 4: SPKHHSQRARKKNKNCRRHSLYVDFSDVGWNDWIVAPPGYQAFYCHGDCPFPLADHLNSTNHAIVQTLVNSVNSSIPKACCVPTELSAISMLYLDEYDKVVLKNYQEMVVEGCGCR

Tests used:
[1] = tested on: mouse skeletal muscle myotubes; experiment: Immunoblot of mitochondrial proteins after iron chelation of myotubes; type: cell-based
[2] = tested on: human embryonic stem cells (ESCs); experiment: TMT 6-plex isobaric tag quantitation of human embryonic stem cells before and two days after BMP4 treatment (inSeq-triggered QuantMode scans); type: cell-based; conditions: two days post treatment
Protocol: To assess this decision node, a sample comprising three biological replicates of human embryonic stem cells (ESCs) was analyzed pre- and two days-post bone morphogenetic protein 4 (BMP4) treatment (i.e., TMT 6-plex, three pre-treatment and three post BMP4 treatment cell populations). BMP4, a growth factor that induces context-dependent differentiation in pluripotent stem cells, is widely used to study differentiation to biologically relevant cell lineages such as mesoderm and endoderm. […] Here the ratio of change between control and treatment cell lines measured in one QM scan is large (5.86) but not significant (P=0.067, Student's t-test with Storey correction) (34). Note significance testing was accomplished by assessing variation within the three biological replicates of both treatment and control cell lines. The measured ratio remains relatively unchanged (5.22 and 5.43) as reporter tag signal from additional quantitation scans are added; however, the corresponding P-values decrease to 0.014 and 0.012 when two or three quantitation scans are summed. […] Ideally this log2 ratio would be zero, indicating perfect biological replication; however, when only one quantitation scan is employed this ratio severely deviates from zero with decreasing tag intensity. To improve overall data quality and to omit potentially erroneous measurements arbitrary reporter signal cutoffs (dashed vertical line in FIG. 16B) can be employed. These cutoffs eliminate many low-abundance peptides which often represent proteins of interest. Summation of additional quantitation scans increases the average reporter tag intensity, raising nearly all of the protein measurements above the intensity cutoff value (74, 9, and 4 proteins omitted using one, two, and three quantification scans, respectively).
Human embryonic stem cells (line H1) were maintained in feeder independent media as previously described (Chen et al). […]
TMT quantification was performed using TagQuant within COMPASS. […]

Row | Molecule | cell death ([1]; mouse myotube C2C12 cells, 100 μM) | decrease in mitochondrial proteins ([1]; mouse myotube C2C12 cells, 100 μM, 24 hrs) | levels of the mitochondrial voltage dependent anion channel (VDAC) ([1]; mouse skeletal muscle myotubes, FIG. 12) | loss of proteins involved in mitochondrial oxidative phosphorylation (OXPHOS) ([1]; mouse skeletal muscle myotubes, dose-dependent and time-dependent, FIG. 12) | ratio of change between control and treatment cell lines, peptide FCADHPFLFFIR (SEQ ID NO:3) from protein SERPINB8 ([2]; one QM scan, P=0.067) | ratio of change between control and treatment cell lines, peptide FCADHPFLFFIR (SEQ ID NO:3) from protein SERPINB8 ([2]; three quantitation scans summed, P=0.012) | ratio of change between control and treatment cell lines, peptide FCADHPFLFFIR (SEQ ID NO:3) from protein SERPINB8 ([2]; two quantitation scans summed, P=0.014)
1 | CC(=O)N(O)CCCCCNC(=O)CCC(=O)N(O)CCCCCNC(=O)CCC(=O)N(O)CCCCCN [DFO, desferrioxamine] | without causing cell death | marked decrease in mitochondrial proteins | unchanging levels | induces loss of proteins involved in mitochondrial oxidative phosphorylation (OXPHOS) | – | – | –
2 | B1 | – | – | – | – | 5.86 | 5.43 | 5.22
